Measurements reported in patent US7745575B1 (Cellpep Pharma Inc., priority 2004, dated 2010).
Bridge positions count the residues as written; N and C are the ends. Peptide text beside a SMILES is read from it.

What was measured:
hKv1.2 = hKv1.2 (Homo sapiens, UniProt P16389); experiment: patch-clamp whole-cell recording, K+ current block; format: cell-based
Description: (§1) Electrophysiological experiments were carried out at 22-24° C. using the patch-clamp whole-cell recording mode. Cells were bathed with mammalian Ringer's solution (in mM): 160 NaCl, 4.5 KCl, 2 CaCl2, 1 MgCl2, and 10 HEPES (pH 7.4 with NaOH), with an osmolarity of 290-320 mOsm. […] A syringe-driven perfusion device was used to exchange the external recording bath solution. Two internal pipette solutions were used, one for measuring voltage-gated K^+ currents that contained (in mM): 155 KF, 2 MgCl2, 10 HEPES, and 10 EGTA (pH 7.2 with KOH), with an osmolarity of 290-320 mOsm and another for measuring Ca^2+-activated K^+ currents that contained (in mM): 135 K-aspartate, 8.7 CaCl2, 2 MgCl2, 10 EGTA, 10 HEPES (pH 7.2 with KOH), with an osmolarity of 290-320 mOsm. A free [Ca^2+]i of 1 μM was calculated. All currents through voltage-gated K^+ channels were elicited by 200 ms depolarising voltage steps from −80 to +40 mV. Potassium currents through KCa1.1, KCa2.1 and KCa3.1 were elicited by 1 μM internal [Ca^2+]i and 400 ms voltage ramps from −120 to 0 mV (for KCa3.1 channel and KCa1.1 channel) and from −120 to +40 mV (for KCa2.1 channel). Electrodes were pulled from glass capillaries (Science Products, Germany), and fire-polished to resistances of 2.5-5 MΩ. Membrane currents were measured with an EPC-9 or EPC-10 patch-clamp amplifier (HEKA Elektronik, Lambrecht, Germany) interfaced to a Macintosh computer running acquisition and analysis software (Pulse and PulseFit). When voltage-gated K^+ currents were measured, the capacitive and leak currents were subtracted using a P/10 procedure. Series resistance compensation (>80%) was used for currents above 2 nA. The holding potential was −80 mV in all experiments.

mKv1.1 = mKv1.1 (Mus musculus, UniProt P16388); experiment: patch-clamp whole-cell recording, K+ current block; format: cell-based
Chain of mKv1.1 (P16388 whole entry): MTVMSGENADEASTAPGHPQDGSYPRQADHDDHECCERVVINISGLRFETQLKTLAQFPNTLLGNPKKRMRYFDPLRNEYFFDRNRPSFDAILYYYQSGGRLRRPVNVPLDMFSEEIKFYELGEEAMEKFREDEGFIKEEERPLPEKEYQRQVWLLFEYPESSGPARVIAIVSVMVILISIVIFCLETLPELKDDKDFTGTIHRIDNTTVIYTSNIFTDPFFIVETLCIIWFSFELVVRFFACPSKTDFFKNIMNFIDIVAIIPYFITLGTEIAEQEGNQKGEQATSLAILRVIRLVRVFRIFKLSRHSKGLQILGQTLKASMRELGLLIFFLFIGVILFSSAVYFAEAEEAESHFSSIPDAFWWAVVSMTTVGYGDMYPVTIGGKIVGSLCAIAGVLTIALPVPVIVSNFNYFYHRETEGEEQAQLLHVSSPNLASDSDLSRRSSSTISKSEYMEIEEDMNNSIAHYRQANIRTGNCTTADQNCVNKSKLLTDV
Description: as §1

mKv1.3 = mKv1.3 (Mus musculus, UniProt P16390); experiment: patch-clamp whole-cell recording, K+ current block; format: cell-based
Chain of mKv1.3 (P16390 whole entry): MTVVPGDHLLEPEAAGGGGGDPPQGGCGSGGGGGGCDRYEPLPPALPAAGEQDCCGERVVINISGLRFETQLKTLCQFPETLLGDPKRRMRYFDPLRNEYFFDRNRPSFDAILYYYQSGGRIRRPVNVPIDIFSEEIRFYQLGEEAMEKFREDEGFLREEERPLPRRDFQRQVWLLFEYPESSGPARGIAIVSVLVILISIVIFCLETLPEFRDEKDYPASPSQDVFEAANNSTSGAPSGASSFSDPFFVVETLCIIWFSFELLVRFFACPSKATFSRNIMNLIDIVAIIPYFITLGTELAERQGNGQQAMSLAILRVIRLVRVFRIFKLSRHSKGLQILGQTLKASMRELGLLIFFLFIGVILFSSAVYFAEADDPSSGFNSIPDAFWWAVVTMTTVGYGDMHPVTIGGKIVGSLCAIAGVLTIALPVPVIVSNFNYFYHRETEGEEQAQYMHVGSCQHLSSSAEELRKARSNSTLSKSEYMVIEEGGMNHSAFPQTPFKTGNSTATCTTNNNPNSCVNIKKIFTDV
Description: as §1

hIK1 (KCa3.1) = hIK1 (KCa3.1) (Homo sapiens, UniProt O15554); experiment: patch-clamp whole-cell recording, Ca2+-activated K+ current block; format: cell-based
Chain of hIK1 (KCa3.1) (O15554 whole entry): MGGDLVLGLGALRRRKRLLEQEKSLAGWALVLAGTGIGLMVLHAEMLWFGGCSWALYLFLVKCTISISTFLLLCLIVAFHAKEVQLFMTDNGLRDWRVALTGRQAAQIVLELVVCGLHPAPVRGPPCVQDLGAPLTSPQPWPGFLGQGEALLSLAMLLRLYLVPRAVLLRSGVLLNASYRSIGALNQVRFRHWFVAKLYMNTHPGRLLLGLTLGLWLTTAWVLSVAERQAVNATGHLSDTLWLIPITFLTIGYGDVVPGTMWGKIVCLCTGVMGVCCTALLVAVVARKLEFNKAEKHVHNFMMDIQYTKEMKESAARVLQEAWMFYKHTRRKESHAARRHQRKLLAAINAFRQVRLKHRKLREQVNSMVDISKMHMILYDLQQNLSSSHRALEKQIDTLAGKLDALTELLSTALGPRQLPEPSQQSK
Description: as §1

[1] = toxicity in vivo, LD50 after intracerebroventricular injection; conditions: mouse, icv or intrathecal, 20 g C57/BL6 mice
Description: Groups of six to eight mice per dose were injected with 5 μl peptide solution containing 0.1% (w/v) bovine serum albumin and 0.9% (w/v) NaCl. The LD50 values are set out in Table 5.

[2] = target: hIK1 (human (only by the printed prefix h)) (UniProt O15554)
[3] = target: hKv1.2 (human (only by the printed prefix h)) (UniProt P16389)
[4] = target: hKv3.2 (human (only by the printed prefix h)) (UniProt Q96PR1)
[5] = target: mKv1.1 (mouse (only by the printed prefix m)) (UniProt P16388)
[6] = target: mKv1.3 (mouse (only by the printed prefix m)) (UniProt P16390)

Chain of hKv1.2 (P16389 whole entry, the tested form may be a part): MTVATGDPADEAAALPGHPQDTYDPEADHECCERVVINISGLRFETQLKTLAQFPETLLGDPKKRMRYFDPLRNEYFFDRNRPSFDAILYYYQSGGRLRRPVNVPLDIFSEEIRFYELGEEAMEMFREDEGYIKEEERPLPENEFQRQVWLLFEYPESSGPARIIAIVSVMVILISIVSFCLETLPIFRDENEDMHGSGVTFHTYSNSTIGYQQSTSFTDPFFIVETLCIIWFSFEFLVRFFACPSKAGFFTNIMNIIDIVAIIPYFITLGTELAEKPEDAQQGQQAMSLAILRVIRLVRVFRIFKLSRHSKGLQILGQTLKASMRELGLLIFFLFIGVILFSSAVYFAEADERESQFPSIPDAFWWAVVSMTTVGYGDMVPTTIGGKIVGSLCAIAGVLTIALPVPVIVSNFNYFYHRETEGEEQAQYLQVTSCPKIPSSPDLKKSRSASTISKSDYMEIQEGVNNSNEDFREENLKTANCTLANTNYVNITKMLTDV

Row | Compound | IC50 (hKv1.2) [nM] | IC50 (mKv1.1) [nM] | IC50 (mKv1.3) [nM] | IC50 (hIK1 (KCa3.1)) [nM] | LD50 [1] [µg/kg] | ID50 [2] [nM] | ID50 [3] [nM] | ID50 [4] [nM] | ID50 [5] [nM] | ID50 [6] [nM]
1 | CC[C@H](C)[C@@H]1NC(=O)[C@H](CCCCN)NC(=O)[C@@H](NC(=O)[C@H](CCCCN)NC(=O)[C@@H](NC(=O)[C@H](CC(N)=O)NC(=O)[C@@H](NC(=O)[C@@H](NC(=O)[C@@H](NC(=O)CN)C(C)C)[C@@H](C)CC)[C@@H](C)CC)C(C)C)CSSC[C@@H]2NC(=O)[C@H](CCCCN)NC(=O)CNC(=O)[C@H](Cc3ccccc3)NC(=O)[C@H](CCCNC(=N)N)NC(=O)[C@H](CCSC)NC(=O)CNC(=O)[C@H](C)NC(=O)[C@H](CC(=O)O)NC(=O)[C@H](CCCCN)NC(=O)[C@@H]3CSSC[C@@H](C(=O)N[C@@H](Cc4ccc(O)cc4)C(=O)N4CCC[C@H]4C(=O)N[C@@H](CCCCN)C(=O)O)NC(=O)[C@H](Cc4c[nH]cn4)NC(=O)[C@H](CSSC[C@H](NC(=O)[C@H](CCC(N)=O)NC(=O)[C@H](CCCNC(=N)N)NC(=O)[C@H](CO)NC1=O)C(=O)N[C@@H](CC(C)C)C(=O)N[C@@H](CCCCN)C(=O)N1CCC[C@H]1C(=O)N3)NC(=O)[C@H](CCCCN)NC(=O)CNC(=O)[C@H](CC(N)=O)NC(=O)[C@H](CCSC)NC2=O (H-GVIINVKCKISRQCLKPCKDAGMRFGKCMNGKCHCYPK-OH; disulfide 8-28, 14-33, 18-35) | 231.8 ± 0.1 | 34.4 ± 0.3 | 0.122 ± 0.007 | 885 ± 18 | 9 |  |  |  |  | 
2 | CC[C@H](C)[C@@H]1NC(=O)[C@H](CCCCN)NC(=O)[C@@H](NC(=O)[C@H](CCCCN)NC(=O)[C@@H](NC(=O)[C@H](CC(N)=O)NC(=O)[C@@H](NC(=O)[C@@H](NC(=O)[C@@H](NC(=O)CN)C(C)C)[C@@H](C)CC)[C@@H](C)CC)C(C)C)CSSC[C@@H]2NC(=O)[C@H](CCCCN)NC(=O)CNC(=O)[C@H](Cc3ccccc3)NC(=O)[C@H](CCCNC(=N)N)NC(=O)[C@H](CCSC)NC(=O)CNC(=O)[C@H](C)NC(=O)[C@H](CC(=O)O)NC(=O)[C@H](CCCCN)NC(=O)[C@@H]3CSSC[C@@H](C(=O)N[C@H](C(=O)N4CCC[C@H]4C(=O)N[C@@H](CCCCN)C(N)=O)[C@@H](C)O)NC(=O)[C@H](Cc4c[nH]cn4)NC(=O)[C@H](CSSC[C@H](NC(=O)[C@H](CCC(N)=O)NC(=O)[C@H](CCCNC(=N)N)NC(=O)[C@H](CO)NC1=O)C(=O)N[C@@H](CC(C)C)C(=O)N[C@@H](CCCCN)C(=O)N1CCC[C@H]1C(=O)N3)NC(=O)[C@H](CCCCN)NC(=O)CNC(=O)[C@H](CC(N)=O)NC(=O)[C@H](CCSC)NC2=O (H-GVIINVKCKISRQCLKPCKDAGMRFGKCMNGKCHCTPK-NH2; disulfide 8-28, 14-33, 18-35) |  | 0.36 ± 0.04 | 0.075 ± 0.006 | > 1000 | 2.25 |  |  |  |  | 
3 | [A^34]-OsK1 (peptide) |  |  |  |  |  | > 1000 | 65 | > 1000 | 15.8 | 0.034
